Measurements taken from paper PMC6095608 (PLoS ONE, 2018).

What was measured:
human OCT1 = system: human OCT1; parameters: method as in PMID 18490433; conditions: 5 μM efavirenz, 1 min incubation; cited from earlier work
OCT1 [1] = biological target: T1, OCT1 (Homo sapiens, UniProt O15245); test: Transcellular transport assay across MDCK-OCT1 monolayers; type: cell-based; conditions: 10 μM efavirenz, 2 h
T1 construct: expressed in transfected cells; host or cells: MDCKII (MDCK-OCT1)
T1 sequence (O15245 1-554): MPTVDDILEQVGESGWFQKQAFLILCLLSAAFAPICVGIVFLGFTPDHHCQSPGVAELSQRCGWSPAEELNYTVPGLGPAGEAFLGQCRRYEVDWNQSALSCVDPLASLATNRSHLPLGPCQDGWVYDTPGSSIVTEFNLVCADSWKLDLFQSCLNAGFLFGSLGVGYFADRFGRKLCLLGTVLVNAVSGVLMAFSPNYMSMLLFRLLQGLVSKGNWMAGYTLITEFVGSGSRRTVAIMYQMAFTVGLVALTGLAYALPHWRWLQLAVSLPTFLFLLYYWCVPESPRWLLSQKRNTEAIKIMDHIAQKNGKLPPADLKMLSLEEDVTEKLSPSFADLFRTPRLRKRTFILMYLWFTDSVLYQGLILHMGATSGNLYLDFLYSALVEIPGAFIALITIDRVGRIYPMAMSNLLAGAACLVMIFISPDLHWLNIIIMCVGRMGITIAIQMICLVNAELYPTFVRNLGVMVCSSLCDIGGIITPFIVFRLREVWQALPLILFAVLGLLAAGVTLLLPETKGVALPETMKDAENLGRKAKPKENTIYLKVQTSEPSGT
Protocol: Transport experiments employing polarized monolayers of MDCK-OCT1, MDCK-OCT2, or MDCK-MATE1 cell lines as well as doubly transfected MDCK-OCT1-MATE1 or MDCK-OCT2-MATE1 lines and the non-transfected parental control MDCK-Co cells grown on Transwell 3402 cell culture inserts (3.0 μm pore size, 24 mm diameter; Costar, Corning, NY) were performed as described previously. The number of cells per well was 0.5 x 10^6 in all experiments, and the cells were incubated for 3 days to confluence in standard cultivation medium MEM (Gibco) + 10% FBS. After 3 days’ cultivation, medium was removed from both sides and the cells of the monolayer were washed using pre-warmed PBS. […] The pH of the medium on the basolateral side was 7.4, while that on the apical side was set to 6.0 (adjusted by adding HCl or NaOH, when necessary) to ensure optimal MATE1 transport activity. Cells were incubated at 37°C in 5% CO2 for 2 hours. At the end of the incubation period, 50 μl aliquots were sampled and the rest of the medium was immediately removed. The cells were then washed twice with ice-cold PBS, the membranes supporting cellular monolayers were excised, and the cells were dissolved in a 0.02% SDS solution. The radioactivity of the collected samples and lysed monolayers was measured by liquid scintillation counting (Tri-Carb 2910 TR Perkin Elmer), and the protein concentration of the cell lysates was quantified using the BCA protein assay. Transport rates were recorded in pmol per mg protein in the cellular monolayer.

OCT1 [2] = biological target: T1, OCT1; test: Inhibition of net [14C]-metformin uptake in MDCK-OCT1 cells; type: cell-based; conditions: 50 μM metformin, 5 min, pH 7.4, efavirenz 0.01–50 μM, read-out: IC50, inhibition of net OCT1-mediated [14C]-metformin uptake
Protocol: The singly-transfected OCT1, OCT2, MATE1 or control MDCK cells were seeded on 12-well plates at a density of 0.5 x 10^6 cells per well and cultivated in standard cultivation medium MEM (Gibco) + 10% FBS. Forty-eight hours after seeding, uptake experiments with radiolabelled metformin were performed. Cells were washed with 500 μl pre-warmed HBSS buffer of pH 7.4 (for OCTs) or 8.0 (for MATE1). Solutions of [^14C]-metformin (50 μM) in HBSS buffer of pH 7.4 or 8.0 with or without efavirenz were then added, and the resulting mixtures were left to stand for an accumulation period of 5 minutes. […] After the accumulation period, the solutions were aspirated and the cells were washed three times with 500 μl ice-cold HBSS buffer of pH 7.4 or 8.0 before being lysed with 0.02% sodium dodecyl sulphate (SDS). The intracellular accumulation of radioactivity was detected using a liquid scintillation counter (Tri-Carb 2910 TR Perkin Elmer), and protein concentrations in the cell lysates were measured by the BCA protein assay. Net transporter-mediated uptake was obtained by subtracting the accumulation of metformin in vector control cells from that in drug transporter-overexpressing cells.
A p value of ≤ 0.05 was considered statistically significant. […]

[3] = parameters: method as in earlier work; conditions: clinical; lamivudine 150 mg twice daily with efavirenz 600 mg once daily; cited from earlier work
MDCK-Co cells = test: Transcellular transport assay across control MDCK-Co monolayers; type: cell-based, canine; conditions: 10 μM efavirenz, 2 nM MPP+, 2 h
Protocol: Transport experiments employing polarized monolayers of MDCK-OCT1, MDCK-OCT2, or MDCK-MATE1 cell lines as well as doubly transfected MDCK-OCT1-MATE1 or MDCK-OCT2-MATE1 lines and the non-transfected parental control MDCK-Co cells grown on Transwell 3402 cell culture inserts (3.0 μm pore size, 24 mm diameter; Costar, Corning, NY) were performed as described previously. The number of cells per well was 0.5 x 10^6 in all experiments, and the cells were incubated for 3 days to confluence in standard cultivation medium MEM (Gibco) + 10% FBS. After 3 days’ cultivation, medium was removed from both sides and the cells of the monolayer were washed using pre-warmed PBS. Experiments were initiated by adding HBSS buffer containing 10 mM HEPES (pH 7.4) or 10 mM MES (pH 6.0) with or without [^3H]-lamivudine (10 nM) or [^3H]-MPP^+ (2 nM) to either the apical or basolateral compartment. The pH of the medium on the basolateral side was 7.4, while that on the apical side was set to 6.0 (adjusted by adding HCl or NaOH, when necessary) to ensure optimal MATE1 transport activity. Cells were incubated at 37°C in 5% CO2 for 2 hours. At the end of the incubation period, 50 μl aliquots were sampled and the rest of the medium was immediately removed. […] Transport rates were recorded in pmol per mg protein in the cellular monolayer.

[4] = Efavirenz plasma concentration in patients (literature); type: in vivo, human; conditions: calculated from average plasma concentration and unbound percentage

Effect on basolateral-to-apical transport of [3H]-MPP+ (OCT1 [1]; 2 nM MPP+, MDCK-OCT1): Inhibition
Effect on intracellular accumulation of [3H]-MPP+ (OCT1 [1]; 2 nM MPP+, MDCK-OCT1 monolayers): significantly reduced
Effect on intracellular accumulation of [3H]-lamivudine (OCT1 [1]; 10 nM lamivudine, MDCK-OCT1): significantly reduced
Effect on transcellular transport of [3H]-lamivudine (OCT1 [1]; 10 nM lamivudine, basal to apical, MDCK-OCT1): significantly inhibited
IC50 (OCT1 [2]): 2.3 µM
50x the unbound concentration of efavirenz in elimination organs [4]: around 2.7 μM
SMILES: O=C1Nc2ccc(Cl)cc2[C@@](C#CC2CC2)(C(F)(F)F)O1 [efavirenz, Efavirenz]
Inhibitory effect on OCT1 with MPP+ as substrate (human OCT1): did not detect any inhibitory effect
Effect on lamivudine AUC [3]: no effect
Effect on lamivudine Cmax [3]: no effect
Increase of lamivudine Cmin [3]: 265%
Effect on basolateral-to-apical transport of [3H]-MPP+ (MDCK-Co cells): no inhibitory effect
